Test results: patent publication US10350192B2, “Lactate dehydrogenase inhibitor and antiepileptic drug containing the same” (NATIONAL UNIVERSITY CORPORATION OKAYAMA UNIVERSITY, priority 2015, dated 2019)
Where “and” joins values, the source holds several entries; their conditions need not be identical. Equal values may be shown once. Entries after “also recorded” stand apart in the source; their conditions may differ.

Experiments:
[1] = test system: hippocampal sclerosis model mouse; assay: Epileptic spikes in hippocampal sclerosis model mouse (intrahippocampal kainate); assay type: in vivo
Protocol: Preparation and measurement of hippocampal sclerosis model mouse (FIGS. 1 to 3): The hippocampal sclerosis model mouse was prepared according to a previous literature (Non-Patent Document 15). Six to seven-week-old ICR mice were used for the experiment. Mice were fully anesthetized with a mixture of ketamine (100 mg/kg) and xylazine (20 mg/kg) and then set on a brain stereotaxic apparatus. Using a micro glass electrode and a Hamilton syringe from above the hippocampus of the head, a trace amount of kainate (0.8 nmol, 40 nL) for inducing epilepsy was injected into the dorsal hippocampus (1.6 mm behind the bregma, 1.6 mm laterally from the centerline, 1.4 mm deep from the brain surface), and then a metal electrode (a diameter of 200 μm) for epileptic electroencephalography was embedded near the kainic acid injection site. In addition, a small plastic U-shaped frame for head fixation required for in vivo electrical measurements was also attached to the head. After 2 weeks or more from surgery, epileptic spikes in the hippocampus were measured. The head was fixed via the U-shaped frame. Epileptic spikes were amplified, then measured via a band-pass filter (0.5-30 Hz) and taken into a computer using an AD converter. After measurement of the baseline electroencephalogram for 30 minutes, stiripentol (300 mg/kg), isosafrole (100-300 mg/kg), sodium oxamate (250-500 mg/kg), or physiological saline was intraperitoneally administered, and then further recording was conducted for 1 hour. Sodium oxamate was dissolved in water, and stiripentol and isosafrole were dissolved in sodium carboxymethyl cellulose (1%) and administered intraperitoneally. In data analysis, high-amplitude epilepsy spikes with an amplitude of 0.5 mV or more were counted 30 minutes before and after administration, respectively, and the efficacy was evaluated by normalization using the number of epileptic spikes before administration. In the observation of morphological changes due to hippocampal sclerosis, the brain was sliced to 300 μm thickness, fixed with 10% formalin, and stained with 0.05% cresylviolet.
Medial temporal lobe epilepsy with hippocampal sclerosis is a typical refractory epilepsy in adults (epilepsy for which existing drugs are not effective). First, according to a previous literature (Non-Patent Document 15), a trace amount of kainic acid was injected to a hippocampus to prepare hippocampal sclerosis model mouse (FIG. 1A). […] This is the same finding as the already reported hippocampal sclerosis model mouse (Non-Patent Document 15), which is similar to the symptom observed in human hippocampal sclerosis (Non-Patent Document 16). When recording on the hippocampus, spontaneous high-amplitude epileptic spikes were observed (FIG. 1C; arrowhead). […]

human LDH-1 = human LDH-1 (Homo sapiens, UniProt P07195); assay: Lactate dehydrogenase activity by NADH light absorption at 340 nm, LDH-1; assay type: biochemical; details: 500 μM
Protocol: (§1) Evaluation of inhibition of lactate dehydrogenase by isosafrole (FIG. 4): The activity of lactate dehydrogenase was measured by a versatile method based on light absorption of NADH. Lactate dehydrogenase is an enzyme that interconverts pyruvate and lactate. At that time, NADH and NAD are also interconverted. For lactate dehydrogenase activity from lactate to pyruvate, lactate (20 mM), NAD (200 μM) and lactate dehydrogenase were added and the reaction rate of NADH produced was measured. On the other hand, for the lactate dehydrogenase activity from pyruvate to lactate, pyruvate (1.0 mM), NADH (200 μM) and lactate dehydrogenase were added and the reaction rate of decreasing NADH was measured. Both reactions were carried out at 37° C. in 100 mM sodium phosphate buffer (pH7.3). The light absorption of NADH at 340 nm was measured using an absorptiometer at 30 second intervals for 3.5 minutes to determine the reaction rate. Two kinds of human lactate dehydrogenase (human LDH-1 and LDH-5) were examined as lactate dehydrogenase. The amount of lactate dehydrogenase was set so that the maximum rates of the two lactate dehydrogenases were approximately the same: 0.0033 units/ml of LDH-1 and 0.01 units/ml of LDH-5 for the activity from lactate to pyruvate; and 0.0017 units/ml of LDH-1 and 0.0033 units/ml of LDH-5 for the activity from pyruvate to lactate. […]

human LDH-5 [2] = target: T1, human LDH-5 (Homo sapiens, UniProt P00338); assay: Lactate dehydrogenase activity by NADH light absorption at 340 nm, LDH-5; assay type: biochemical; details: 500 μM
Protocol: as §1

human LDH-5 [3] = target: T1, human LDH-5; assay: Lactate dehydrogenase inhibition rate, diaphorase/INT formazan coloring reaction (492 nm); assay type: biochemical
Protocol: Identification of a lactate dehydrogenase inhibitor having isosafrole as a scaffold (FIGS. 5 to 7): Since NADH absorbs light in the ultraviolet region (340 nm) and many compounds absorb the wavelength, NADH is not suitable for screening using a compound library. Therefore, in order to evaluate the lactate dehydrogenase activity from pyruvate to lactate, pyruvate (100 μM), NADH (100 μM) and lactate dehydrogenase (0.015 U/mL of human LDH-5) were firstly added, then allowed to react in a 100 mM sodium phosphate buffer (pH7.3) at 37° C. for 60 minutes (LDH enzyme reaction, 200 μL/well). At this stage, the background absorbance at 492 nm was first measured with a plate reader (absorbance before coloring reaction). Next, in order to measure the amount of NADH remaining in the LDH enzyme reaction, 100 μL/well of a coloring solution in which diaphorase (25 U/mL) and INT (5 mM) were dissolved was added, and then allowed to react in a 100 mM sodium phosphate buffer (pH7.3) at 37° C. for 10 minutes (coloring reaction). Since INT changes to INT formazan by diaphorase in the presence of NADH and develops color, the absorbance at 492 nm of INT formazan was measured with a plate reader (absorbance after coloring reaction).
Calculation of the inhibition rate (% Inhibition) is as follows. ΔA when the above reaction was carried out under the condition that lactate dehydrogenase was present was taken as “0% control value”, and ΔA when the above reaction was carried out under the condition that lactate dehydrogenase was absent was taken as “100% control value”. […] Then, the same reaction as the 0% control was carried out in the presence of a compound having isosafrole as a scaffold, and resultant ΔA was defined as “ΔA in the presence of the compound”. […] Specifically, inhibition rate is calculated as follows: Inhibition rate (%)=100×(ΔA in the presence of the compound−0% control value)/(100% control value−0% control value). Compounds showing inhibition rate of 100% (±25%) were described in FIGS. 6 and 7 as lactate dehydrogenase inhibitor. […]

[4] = test system: pentylenetetrazole-induced acute epileptic seizures; details: rats, 300 mg/kg intraperitoneal; cited from earlier work
[5] = rats, 300 mg/kg intraperitoneal; cited from earlier work
[6] = 300 mg/kg intraperitoneal, high-amplitude spikes 30 min after vs before administration

Chain of human LDH-1 (P07195 2-334 limits assumed): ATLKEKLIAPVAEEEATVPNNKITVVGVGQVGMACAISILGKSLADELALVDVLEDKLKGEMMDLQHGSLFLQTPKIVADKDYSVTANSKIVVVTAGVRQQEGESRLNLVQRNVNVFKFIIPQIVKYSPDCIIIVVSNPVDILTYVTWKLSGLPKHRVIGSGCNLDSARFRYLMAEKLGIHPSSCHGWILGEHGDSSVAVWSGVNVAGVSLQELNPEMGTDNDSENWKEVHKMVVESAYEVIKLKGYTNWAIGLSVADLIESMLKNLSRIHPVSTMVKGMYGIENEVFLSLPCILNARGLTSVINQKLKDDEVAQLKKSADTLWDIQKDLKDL

With C/C=C/c1ccc2c(c1)OCO2 [isosafrole, 5-(1-propenyl)-1,3-benzodioxole] the “antiepileptic effect on epileptic spikes” value [1, 6] was “significantly suppressed; also recorded: remarkable inhibitory effect on epilepsy”, the “antiepileptic effect on epileptic spikes” value ([1]; 200-300 mg/kg intraperitoneal) was “remarkable antiepileptic effect” and the “effect on lactate dehydrogenase activity from lactate to pyruvate” value (human LDH-1; Lactate→Pyruvate) was “inhibitory effect”. The “effect on lactate dehydrogenase activity from pyruvate to lactate” value (human LDH-1; Pyruvate→Lactate) was “inhibitory effect was strong”, the “effect on lactate dehydrogenase activity from lactate to pyruvate” value (human LDH-5 [2]; Lactate→Pyruvate) was “inhibitory effect” and the “effect on lactate dehydrogenase activity from pyruvate to lactate” value (human LDH-5 [2]; Pyruvate→Lactate) was “inhibitory effect was strong”. The “inhibition of lactate dehydrogenase (LDH-5)” value (“inhibition” below) (human LDH-5 [3]; 250 μM) was “not”, the “inhibition” value (human LDH-5 [3]; 500 μM) was “inhibited” and the “inhibition” value (human LDH-5 [3]; 500 μM, listed as Isosafrole) was “inhibits”.
For CC(C)(C)C(O)/C=C/c1ccc2c(c1)OCO2 (stereo not shown) [stiripentol, 4-dimethyl-1-[(3,4-methylenedioxy)-phenyl]-1-penten-3-ol], the “antiepileptic effect on epileptic spikes” value [1, 6] is listed as “scarcely inhibited; also recorded: little antiepileptic effect; also recorded: almost no inhibitory effect”, the “suppression of pentylenetetrazole-induced acute epileptic seizures” value [4] is listed as “suppressed” and the plasma concentration [5] is listed as 20-100 μg/ml and 85-427 μM.
For NC(=O)C(=O)[O-].[Na+] [sodium oxamate], the “antiepileptic effect on epileptic spikes” value ([1]; 500 mg/kg intraperitoneal) was “weak anti-epileptic effect”.
